{"source": "patent US10364222B2", "about": "“Cyclic amine derivative and medical use thereof” (Toray Industries, Inc., priority 2016, dated 2019)", "key": {"[1]": {"tested_on": "imiquimod-induced mouse psoriasis model", "experiment": "Imiquimod-induced mouse psoriasis model", "assay_type": "in vivo", "settings": "BALB/c mice; 10 mg/kg orally once daily from 3 to 7 days after induction; vs vehicle, Student's t-test P<0.05", "experimental": "Using increase in the ear thickness as an index of exacerbation of symptoms, the effect of the cyclic amine derivative (I) or a pharmacologically acceptable salt thereof in an imiquimod-induced mouse psoriasis model was evaluated. The imiquimod-induced mouse psoriasis model was prepared by a partially modified method by Schaper et al. (The Journal of Dermatological Science, 2013, Vol. 71, No. 1, p. 29-36).\nBALB/c mice (male, 7 weeks old) (Charles River Laboratories Japan, Inc.) were used at 8 weeks old after preliminary breeding. To induce psoriasis-like symptoms, 5 mg each of BESELNA CREAM 5% was applied once daily to the outside of the right and left auricles of the mice for 8 days from the day of first administration of imiquimod (hereinafter referred to as induction day) to 7 days after induction (dose of imiquimod, 0.5 mg/body/day).\nThe test compound at a dose of 10 mg/kg was administered to the mice once daily for 5 days from 3 days after induction to 7 days after induction. As the test compound, the compound of Example 20, the compound of Example 29, and the compound of Example 57 were used. The compound of Example 20, the compound of Example 29, and the compound of Example 57 were suspended in a 0.5 w/v % methylcellulose solution and orally administered. The group in which the compound of Example 20 was administered to mice was defined as the Example-20 compound administration group, the group in which the compound of Example 29 was administered was defined as the Example-29 compound administration group, and the group in which the compound of Example 57 was administered was defined as the Example-57 compound administration group. In the vehicle administration group, a vehicle of each test compound (0.5 w/v % methylcellulose solution) was similarly administered.\nThe right and left ear thickness before administration of imiquimod (before induction) on the induction day and the right and left ear thickness on the 8th day after induction were measured with a digital micrometer (Mitutoyo Corporation). […]"}, "[2]": {"tested_on": "IL-17 production in mouse splenocytes", "experiment": "Suppressive effect on IL-17 production by IL-23 stimulation in mouse splenocytes", "assay_type": "cell-based", "settings": "Splenocyte, 72 h, at 5 μmol/L of the test compound, 10 ng/mL human IL-23, 3 days, read-out: IL-17 production inhibition rate (%)", "how_it_was_run": "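Splenocytes from male C57BL/6J mice (3×10^5/well, with 100 U/mL human IL-2) stimulated with 10 ng/mL human IL-23 plus compound (0.1% DMSO) for 3 days at 37 °C. Supernatant IL-17 measured by ELISA; inhibition calculated against unstimulated and IL-23-only wells.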"}}}
{"smiles": "CC(=O)N1CCCC[C@@H]1C(=O)Nc1ccc(-c2ccccc2OC(F)(F)F)c(Cl)c1", "note": "[Example 20, (R)-1-acetyl-N-(2-chloro-2′-(trifluoromethoxy)-[1,1′-biphenyl]-4-yl)piperidine-2-carboxamide]", "values": [{"measurement": "change in the ear thickness (ear thickness on the 8th day after induction − before induction)", "setting": "[1]", "value": "statistically significantly suppressed"}, {"measurement": "inhibition at 5 µM", "setting": "[2]", "value": 99.7, "unit": "%"}]}
{"smiles": "CN(CC(=O)N1CCCC[C@@H]1C(=O)Nc1ccc(-c2ccccc2OC(F)(F)F)c(Cl)c1)S(C)(=O)=O", "note": "[Example 29, (R)-N-(2-chloro-2′-(trifluoromethoxy)-[1,1′-biphenyl]-4-yl)-1-(2-(N-methylmethylsulfonamide)acetyl)piperidine-2-carboxamide]", "values": [{"measurement": "change in the ear thickness (ear thickness on the 8th day after induction − before induction)", "setting": "[1]", "value": "statistically significantly suppressed"}, {"measurement": "inhibition at 5 µM", "setting": "[2]", "value": 100, "unit": "%"}]}
{"smiles": "O=C(Nc1ccc(-c2ccccc2OC(F)(F)F)c(Cl)c1)[C@H]1CCCCN1C(=O)Cn1cnnn1", "note": "[Example 57, (R)-1-(2-(1H-tetrazol-1-yl)acetyl)-N-(2-chloro-2′-(trifluoromethoxy)-[1,1′-biphenyl]-4-yl)piperidine-2-carboxamide]", "values": [{"measurement": "change in the ear thickness (ear thickness on the 8th day after induction − before induction)", "setting": "[1]", "value": "statistically significantly suppressed"}, {"measurement": "inhibition at 5 µM", "setting": "[2]", "value": 101, "unit": "%"}]}
